Legend:
[1] = target: T1, COX-I (Homo sapiens, UniProt P23219); assay: Whole blood assay for COX-I (TXB2 production); format: cell-based; settings: 1 hr at 37° C.
T1 construct: Fresh blood was collected by syringe without anticoagulants from volunteers with consent; from tissue; host or cells: fresh human whole blood from volunteers, no anticoagulant, left to clot
Experimental: [B] Inhibiting Activity Against COX-I and COX-II (Whole Blood Assay): (i) Test Method: Whole Blood Assay for COX-I
Fresh blood was collected by syringe without anticoagulants from volunteers with consent. The subjects had no apparent inflammatory conditions and had not taken any medication for at least 7 days prior to blood collection.
500 μl aliquots of human whole blood were immediately incubated with 2 μl of either dimethyl sulfoxide vehicle or a test compound at final concentrations for 1 hr at 37° C. to allow the blood to clot. Appropriate treatments (no incubation) were used as blanks. At the end of the incubation, 5 μl of 250 mM Indomethacin was added to stop the reaction. The blood was centrifuged at 6000×g for 5 min at 4° C. to obtain serum. A 100 μl aliquot of serum was mixed with 400 μl methanol for protein precipitation. The supernatant was obtained by centrifuging at 6000×g for 5 min at 4° C. and was assayed for TXB2 using an enzyme immunoassay kit according to the manufacturer's procedure. For a test compound, the results were expressed as percent inhibition of thromboxane B2(TXB2) production relative to control incubations containing dimethyl sulfoxide vehicle.
The data were analyzed by that a test compound at the indicated concentrations was changed log value and was applied simple linear regression. IC50 value was calculated by least squares method.

[2] = target: T2, COX-II (Homo sapiens, UniProt P35354); assay: Whole blood assay for COX-II (LPS-induced PGE2 production); format: cell-based; settings: lipopolysaccharide 24 hrs at 37° C.
T2 construct: lipopolysaccharide for 24 hrs at 37° C. for induction of COX-II; from tissue; host or cells: fresh heparinized human whole blood from volunteers, stimulated with LPS for 24 hrs
T2 sequence (P35354 18-604): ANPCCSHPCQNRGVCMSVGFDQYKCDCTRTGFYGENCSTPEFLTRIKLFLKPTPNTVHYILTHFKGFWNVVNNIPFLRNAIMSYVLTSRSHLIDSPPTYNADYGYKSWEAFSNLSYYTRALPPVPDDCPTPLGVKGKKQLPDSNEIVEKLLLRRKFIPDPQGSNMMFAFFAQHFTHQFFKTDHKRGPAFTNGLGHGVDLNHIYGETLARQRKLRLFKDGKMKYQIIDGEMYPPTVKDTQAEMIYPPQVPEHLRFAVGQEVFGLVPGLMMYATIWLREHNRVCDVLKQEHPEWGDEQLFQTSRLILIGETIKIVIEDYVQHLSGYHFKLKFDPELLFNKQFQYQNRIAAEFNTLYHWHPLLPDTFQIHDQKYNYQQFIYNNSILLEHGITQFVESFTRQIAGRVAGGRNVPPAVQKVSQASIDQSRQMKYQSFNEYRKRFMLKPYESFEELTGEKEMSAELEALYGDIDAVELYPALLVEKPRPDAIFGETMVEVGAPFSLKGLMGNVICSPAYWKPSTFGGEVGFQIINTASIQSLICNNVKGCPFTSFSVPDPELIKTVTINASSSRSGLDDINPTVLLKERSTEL
Experimental: Whole Blood Assay for COX-II
Fresh blood was collected in heparinized tubes by syringe from volunteers with consent. The subjects had no apparent inflammatory conditions and had not taken any medication for at least 7 days prior to blood collection.
500 μl aliquots of human whole blood were incubated with either 2 μl dimethyl sulfoxide vehicle or 2 μl of a test compound at final concentrations for 15 min at 37° C. This was followed by incubation of the blood with […] of 5 mg/ml lipopolysaccharide for 24 hrs at 37° C. for induction of COX-II. Appropriate PBS treatments (no LPS) were used as blanks. At the end of the incubation, the blood was centrifuged at 6000×g for 5 min at 4° C. to obtain plasma. A 100 μl aliquot of plasma was mixed with 400 μl methanol for protein precipitation. The supernatant was obtained by centrifuging at 6000×g for 5 min at 4° C. and was assayed for prostaglandin E2 (PGE2) using a radioimmunoassay kit after conversion of PGE2 to its methyl oximate derivative according to the manufacturer's procedure.
For a test compound, the results were expressed as percent inhibition of […] production relative to control incubations containing dimethyl sulfoxide vehicle. The data were analyzed by that a test compound at the indicated concentrations was changed log value and was applied simple linear regression. IC50 value was calculated by least squares method.

[3] = system: adjuvant arthritis in rats; assay: Analgesic activity: effect on adjuvant arthritis in rats (Randall-Selitto pain threshold); format: in vivo, Lewis rats; settings: dose 3.2 mg/kg; ratio of threshold pressure of treated vs non-treated arthritic rats, 2 hrs after administration; ratio of 1.5 = effective dose

T1 sequence (P23219 24-599): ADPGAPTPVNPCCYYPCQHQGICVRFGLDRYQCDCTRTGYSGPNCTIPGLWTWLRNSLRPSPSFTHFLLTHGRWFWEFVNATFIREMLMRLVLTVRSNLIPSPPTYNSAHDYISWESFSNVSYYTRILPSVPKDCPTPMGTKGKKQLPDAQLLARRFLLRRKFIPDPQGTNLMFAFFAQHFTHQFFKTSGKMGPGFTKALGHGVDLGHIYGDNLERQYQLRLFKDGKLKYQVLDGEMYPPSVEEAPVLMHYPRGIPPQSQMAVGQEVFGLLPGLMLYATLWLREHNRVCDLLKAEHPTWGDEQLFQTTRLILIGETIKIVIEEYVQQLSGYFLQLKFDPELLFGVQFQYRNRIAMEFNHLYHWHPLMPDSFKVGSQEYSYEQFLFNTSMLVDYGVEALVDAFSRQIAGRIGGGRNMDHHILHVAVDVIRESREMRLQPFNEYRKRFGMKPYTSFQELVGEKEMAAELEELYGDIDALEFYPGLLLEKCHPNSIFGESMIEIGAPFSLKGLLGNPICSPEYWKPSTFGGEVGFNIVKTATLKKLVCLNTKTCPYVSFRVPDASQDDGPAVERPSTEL

SMILES | melting point [°C] | IC50 [1] [µM] | IC50 [2] [µM] | The coefficient of analgesic [3]
COc1ccc(-n2cc(C#N)nc2-c2ccc(OC)nc2)cc1 [Example 4-2, 4-Cyano-1-(4-methoxyphenyl)-2-(2-methoxy-5-pyridinyl)-1H-imidazole] | 130 to 132 | < 0.01 | ≥ 0.1 | –
COc1ccc(-c2nc(C)cn2-c2ccc(OC)cc2)cc1.Cl [Example 21, 1-(4-Methoxyphenyl)-2-(4-methoxyphenyl)-4-methyl-1H-imidazole hydrochloride] | 203 to 205 | < 0.01 | ≥ 0.1 | –
COc1ccc(-c2nc(C#N)cn2-c2ccc(OC)cc2)cc1.Cl [Example 11, 4-Cyano-1-(4-methoxyphenyl)-2-(4-methoxyphenyl)-1H-imidazole hydrochloride] | 142 to 143 | < 0.01 | ≥ 0.1 | >1.5
COc1ccc(-c2nc(C(F)(F)F)cn2-c2ccc(C#N)cc2)cc1 [Example 24, 1-(4-Cyanophenyl)-2-(4-methoxyphenyl)-4-trifluoromethyl-1H-imidazole] | 146 to 148 | < 0.01 | ≥ 0.1 | >1.5
COc1ccc(-c2nc(C(F)(F)F)cn2-c2ccc(O)cc2)cn1 [Example 6, 1-(4-Hydroxyphenyl)-2-(2-methoxy-5-pyridinyl)-4-trifluoromethyl-1H-imidazole] | 198 to 200 | – | – | –
COc1ccc(-c2nc(C(N)=O)cn2-c2ccc(OC)cc2)cc1 [Example 10, 4-Carbamoyl-1-(4-methoxyphenyl)-2-(4-methoxyphenyl)-1H-imidazole] | 167 to 169 | – | – | –
COc1ccc(-c2nc(C(F)(F)F)cn2-c2ccc(C#N)cc2)cn1 [Example 8, 1-(4-Cyanophenyl)-2-(2-methoxy-5-pyridinyl)-4-trifluoromethyl-1H-imidazole] | 155 to 158 | < 0.01 | ≥ 0.1 | –
CCOC(=O)c1cn(-c2ccc(OC)cc2)c(-c2ccc(OC)cc2)n1 [Example 9, 4-Ethoxycarbonyl-1-(4-methoxyphenyl)-2-(4-methoxyphenyl)-1H-imidazole] | 142 to 143 | – | – | –
CCOC(=O)c1ccc(-n2cc(C#N)nc2-c2ccc(OC)cc2)cc1 [Example 25-2, 4-Cyano-1-(4-ethoxycarbonylphenyl)-2-(4-methoxyphenyl)-1H-imidazole] | 139 to 140 | – | – | –
COc1ccc(-c2nc(C(F)F)cn2-c2ccc(OC)cc2)cc1.Cl [Example 17, 4-Difluoromethyl-1-(4-methoxyphenyl)-2-(4-methoxyphenyl)-1H-imidazole hydrochloride] | 150 to 153 | < 0.01 | ≥ 0.1 | –
COc1ccc(-c2nc(C#N)cn2-c2ccc(OC)cc2)cc1 [Example 12-2, 4-Cyano-1-(4-methoxyphenyl)-2-(4-methoxyphenyl)-1H-imidazole] | 132 to 134 | – | – | –
COc1ccc(-c2nc(C(F)(F)F)cn2-c2ccc(Br)cc2)cc1 [Example 1-2, 1-(4-Bromophenyl)-2-(4-methoxyphenyl)-4-trifluoromethyl-1H-imidazole] | 140 to 141 | < 0.01 | ≥ 0.1 | –
COc1ccc(-c2nc(C3CC3)cn2-c2ccc(OC)cc2)cc1.Cl [Example 20, 4-Cyclopropyl-1-(4-methoxyphenyl)-2-(4-methoxyphenyl)-1H-imidazole hydrochloride] | 180 to 181 | < 0.01 | ≥ 0.1 | –
COc1ccc(-c2nc(C(=O)O)cn2-c2ccc(OC)cc2)cc1 [Example 18, 4-Carboxy-1-(4-methoxyphenyl)-2-(4-methoxyphenyl)-1H-imidazole] | 102 to 105 | – | – | –

The next lines start with results.

melting point [°C] | IC50 [1] [µM] | IC50 [2] [µM] | SMILES | The coefficient of analgesic [3]
143 to 145 | – | – | COc1ccc(-c2nc(C(F)F)cn2-c2ccc(O)cc2)cc1 [Example 32, 4-Difluoromethyl-1-(4-hydroxyphenyl)-2-(4-methoxyphenyl)-1H-imidazole] | –
118 to 119 | – | – | CCN(C)C(=O)c1cn(-c2ccc(OCc3ccccc3)cc2)c(-c2ccc(OC)cc2)n1 [Example 46, 1-(4-Benzyloxyphenyl)-4-(N-ethyl-N-methylcarbamoyl)-2-(4-methoxyphenyl)-1H-imidazole] | –
116 to 117 | – | – | COc1ccc(-c2nc(C(C)=O)cn2-c2ccc(OC)cc2)cc1 [Example 28, 4-Acetyl-1-(4-methoxyphenyl)-2-(4-methoxyphenyl)-1H-imidazole] | >1.5
135 to 137 | – | – | CCOC(=O)c1cn(-c2ccc(OC)cc2)c(-c2ccc(OC)nc2)n1 [Example 41-2, 4-Ethoxycarbonyl-1-(4-methoxyphenyl)-2-(2-methoxy-5-pyridinyl)-1H-imidazole] | –
126 to 128 | – | – | CCC(=O)c1cn(-c2ccc(OCc3ccccc3)cc2)c(-c2ccc(OC)nc2)n1 [Example 55, 1-(4-Benzyloxyphenyl)-4-ethylcarbonyl-2-(2-methoxy-5-pyridinyl)-1H-imidazole] | –
221 to 223 | – | – | CCC(=O)c1cn(-c2ccc(O)cc2)c(-c2ccc(OC)nc2)n1 [Example 56, 4-Ethylcarbonyl-1-(4-hydroxyphenyl)-2-(2-methoxy-5-pyridinyl)-1H-imidazole] | –
185 to 187 | – | – | COc1ccc(-c2nc(C(=O)C(C)C)cn2-c2ccc(O)cc2)cn1 [Example 58, 4-Isopropylcarbonyl-1-(4-hydroxyphenyl)-2-(2-methoxy-5-pyridinyl)-1H-imidazole] | –
118 to 120 | – | – | COc1ccc(-c2nc(C(=O)C(C)C)cn2-c2ccc(OCc3ccccc3)cc2)cn1 [Example 57, 1-(4-Benzyloxyphenyl)-4-isopropylcarbonyl-2-(2-methoxy-5-pyridinyl)-1H-imidazole] | –
109 to 110 | – | – | CCOC(=O)c1cn(-c2ccc(OCc3ccccc3)cc2)c(-c2ccc(OC)nc2)n1 [Example 35-2, 1-(4-Benzyloxyphenyl)-4-ethoxycarbonyl-2-(2-methoxy-5-pyridinyl)-1H-imidazole] | –
146 to 147 | – | – | CCN(CC)C(=O)c1cn(-c2ccc(OCc3ccccc3)cc2)c(-c2ccc(OC)cc2)n1 [Example 48, 1-(4-Benzyloxyphenyl)-4-(N,N-diethylcarbamoyl)-2-(4-methoxyphenyl)-1H-imidazole] | –
215 to 216 | – | – | COc1ccc(-c2nc(C(F)(F)F)cn2-c2ccc(O)cc2)cc1 [Example 62, 1-(4-Hydroxyphenyl)-2-(4-methoxyphenyl)-4-trifluoromethyl-1H-imidazole] | –
131 to 132 | < 0.01 | ≥ 0.1 | COc1ccc(-c2nc(C(F)F)cn2-c2ccc(C#N)cc2)cc1 [Example 34, 1-(4-Cyanophenyl)-4-difluoromethyl-2-(4-methoxyphenyl)-1H-imidazole] | –
185 to 186 | – | – | COc1ccc(-c2nc(C#N)cn2-c2ccc(C#N)cc2)cc1 [Example 27, 4-Cyano-1-(4-cyanophenyl)-2-(4-methoxyphenyl)-1H-imidazole] | –
